{"source": "patent US20150164895A1", "about": "“DETERMINING SENSITIVITY OF CELLS TO B-RAF INHIBITOR TREATMENT BY DETECTING KRAS MUTATION AND RTK EXPRESSION LEVELS” (GENENTECH, INC., priority 2009, published 2015)", "key": {"[1]": {"tested_on": "patient-derived melanoma and non-small cell lung cancer tumor models", "experiment": "Primary human tumor xenograft models, time to tumor doubling", "assay_type": "in vivo, mice", "conditions": "100 mg/kg daily", "procedure": "FIG. 8A depicts the duration and extent of BRAF pathway inhibition determines B-Raf inhibitor, GDC-0879 efficacy in primary human tumor xenograft models. A Kaplan-Meier plot showing time to tumor doubling for patient-derived melanoma and non-small cell lung cancer tumor models treated daily with 100 mg/kg GDC-0879 or vehicle. Genotypes for BRAF, N-ras and K-ras are indicated.\nThe Ras GTPase family controls numerous downstream signaling cascades in response to signals that regulate cellular processes including proliferation and survival. While Ras is one of the most prevalent targets for gain-of-function mutations in human tumors, questions remain regarding how the Ras effector pathway functions in mutant K-ras-driven tumorigenesis. Since an important function of K-ras involves B-Raf activation within the canonical MAPK signaling pathway, we initiated a study to determine B-Raf's role in the context of mutant K-ras-driven tumor promotion and maintenance. […] See, FIG. 8A, showing time to tumor doubling."}, "[2]": {"tested_on": "pERK in BRAF V600E cells expressing EGFR", "experiment": "pERK MSD assay, basal and EGF-stimulated", "assay_type": "cell-based", "conditions": "serum starved, -EGF or +EGF", "procedure": "(A) Table of genotype and EGFR levels among lines tested. (B) Measurement of basal and stimulated pERK levels: cells were treated with […] compound in serum free media for 1 hour. For stimulation 20 ng/ml EGF was added for 5 min before cells were lysed. Lysates were transferred to an MSD plate where phospho- and total ERK levels were measured. (C) pERK IC50 data are plotted for the two Raf inhibitors (CHR-265, 1-methyl-5-[[2-[5-(trifluoromethyl)-1H-imidazol-2-yl]-4-pyridinyl]oxy]-N-[4-(trifluoromethyl)phenyl]-1H-Benzimidazol-2-amine and GDC-0879) under basal and EGF-stimulated conditions.\nFIG. 29 summarizes certain RAF inhibitor (GDC-0879, PLX-4720 and “Raf inh a” which is 2,6-difluoro-N-(3-methoxy-1H-pyrazolo[3,4-b]pyridin-5-yl)-3-(propylsulfonamido)benzamide) potencies for blocking cellular pERK induction in response to EGF stimulation."}, "[3]": {"tested_on": "ERK1/2 phosphorylation in BRAF^V600E primary human xenograft tumors", "experiment": "Pharmacodynamic ERK1/2 phosphorylation immunoblot in primary human xenograft tumors", "assay_type": "in vivo, mice", "conditions": "100 mg/kg, 1 or 8 h following the last dose (days 21-24)", "procedure": "In time course pharmacodynamic studies, mice were treated with 100 mg/kg GDC-0879 and scarified at 1 or 8 h following the last dose (days 21-24). Immunoblots of phosphorylated and total ERK1/2 are shown. […] Total ERK1/2 expression was examined in all samples as a loading control."}, "[4]": {"tested_on": "C-RAF in A375 (B-RAFV600E) cells transfected with KRASG12D", "experiment": "C-RAF immunoprecipitation: kinase activity and B-RAF heterodimerization", "assay_type": "cell-based", "parameters": "dose or concentration left out as unconfirmed", "conditions": "A375 transfected with mutant KRASG12D; dosed at 0.1, 1", "procedure": "FIGS. 20A, B, C and D depict the importance of the role of active Ras plays in C-RAF activation and phospho-MEK induction by RAF inhibitors. (A) A375 (B-RAFV600E) cells were treated with GDC-0879 or PLX4720 for 1 hour and lysed in hypotonic buffer for membrane fractionation. Both membrane (P100) and cytosolic (S100) fractions were immunoblotted with the indicated antibodies. (B) MeWo cells were transiently transfected with KRASWT or KRASSI7N, treated with GDC-0879 or PLX4720 (at […]) for 1 hour and fractionated into membrane (P100) and cytosolic (S100) fractions. Aliquots of the membrane and cytosolic fractions were immunoblotted with anti-phospho- and anti-total MEK antibodies. (C) RAS-GTP levels were measured from lysates of MeWo (RAS/RAFWT), A375 (B-RAFV600E) and H2122 (KRASMT) cells with a Ras-GTP ELISA protocol using immobilized C-RAF-RBD as bait for capturing RAS-GTP. Relative luminescent units represent RAS detection of an anti-RAS antibody bound to the RBD. RAS-GTP H2122>>Mewo>A375. […] C-RAF was immunoprecipitated from control and inhibitor-treated cells and assayed for protein activity and B-RAF heterodimerization. Total C-RAF levels shown by WB in the immunoprecipitate indicate loading for each lane."}, "[5]": {"target": "B-Raf^V600E (Homo sapiens, UniProt P15056, V600E)", "sequence (P15056 whole entry V600E)": "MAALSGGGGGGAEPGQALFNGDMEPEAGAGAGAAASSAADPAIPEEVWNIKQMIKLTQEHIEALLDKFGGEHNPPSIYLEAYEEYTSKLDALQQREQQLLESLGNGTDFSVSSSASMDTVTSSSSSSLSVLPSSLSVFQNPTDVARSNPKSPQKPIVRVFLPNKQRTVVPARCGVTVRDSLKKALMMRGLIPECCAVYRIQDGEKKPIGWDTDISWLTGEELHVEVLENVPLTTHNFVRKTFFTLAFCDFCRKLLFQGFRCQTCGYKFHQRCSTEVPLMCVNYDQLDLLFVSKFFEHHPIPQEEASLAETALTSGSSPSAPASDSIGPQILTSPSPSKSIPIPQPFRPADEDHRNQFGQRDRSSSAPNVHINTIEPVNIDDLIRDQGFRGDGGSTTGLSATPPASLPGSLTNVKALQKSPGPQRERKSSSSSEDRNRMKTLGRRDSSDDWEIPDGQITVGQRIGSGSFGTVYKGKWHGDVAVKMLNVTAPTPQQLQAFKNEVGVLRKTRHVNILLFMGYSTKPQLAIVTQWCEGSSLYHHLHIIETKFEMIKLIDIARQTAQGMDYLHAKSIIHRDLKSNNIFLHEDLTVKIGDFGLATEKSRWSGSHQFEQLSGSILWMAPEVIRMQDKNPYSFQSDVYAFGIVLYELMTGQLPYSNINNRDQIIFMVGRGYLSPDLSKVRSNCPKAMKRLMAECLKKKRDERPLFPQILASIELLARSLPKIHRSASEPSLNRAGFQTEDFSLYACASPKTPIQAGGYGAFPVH", "conditions": "physiological [ATP]"}}}
{"smiles": "OCCn1cc(-c2ccc3c(c2)CC/C3=N\\O)c(-c2ccncc2)n1", "note": "[GDC-0879, 2-{4-[(1E)-1-(hydroxyimino)-2,3-dihydro-1H-inden-5-yl]-3-(pyridine-4-yl)-1H-pyrazol-1-yl}ethan-1-ol]", "values": [{"measurement": "time to tumor doubling / tumor growth", "setting": "[1]; K-ras-mutant non-small cell lung tumors such as LXFA 1041 and LXFA 983", "value": "significantly accelerated growth"}, {"measurement": "time to tumor doubling / tumor progression", "setting": "[1]; MEXF 989, MEXF 276, and MEXF 355 tumors", "value": "statistically significant (P<0.05) delay in tumor progression"}, {"measurement": "blocking wildtype RAF signaling / selectivity (pERK induction in response to EGF)", "setting": "[2]", "value": "can more efficiently block wildtype RAF signaling"}, {"measurement": "ERK1/2 phosphorylation in tumors", "setting": "[3]", "value": "down-regulated ERK1/2 phosphorylation"}, {"measurement": "B-RAF:C-RAF heterodimers and C-RAF kinase activation", "setting": "[4]", "value": "induce B-RAF:C-RAF heterodimers and C-RAF kinase activation"}, {"measurement": "potency in biochemical enzyme assay", "setting": "[5]", "value": "maintains effective potency"}]}
